Results from PMC5930436, “Overexpressed HDAC8 in cervical cancer cells shows functional redundancy of tubulin deacetylation with HDAC6” (Cell Communication and Signaling : CCS, 2018).
“Also recorded” adds a separate entry of the source.

Tests used:
HeLa cells [1] = test: Cell migration (wound) assay in HeLa cells; assay type: cell-based, human; settings: PCI-34051 (10 μM) or Paclitaxel (10 μM), 24 and 48 h
Protocol: HeLa cells are grown in 6 well plates in duplicates till it attains 90% confluency and starved with serum free media for overnight. Using a sterile 200 μl tip wound is created by drawing straight lines at three different points in each well. Detached cells are aspirated and washed three times with 1XPBS. Cells are treated with PCI-34051 (10 μM & 20 μM) and Paclitaxel (10 μM & 20 μM) dissolved in 2% FBS respectively along with control (untreated). Migrated cells into the wound were examined by capturing images using Olympus CKX41, ProgRes CT3 phase contrast microscope after 24 and 48 h.

HeLa cells [2] = test: Cell morphology analysis, HeLa; assay type: cell-based, human; settings: HeLa, 20 μM, 24 & 48 h, vs control
Protocol: (§1) HeLa and HEK 293 T cells are cultured in 6 well plates till attaining 70% confluency. Cells are starved for 12 h without serum and treated with PCI-34051 (20 μM) and Paclitaxel (20 μM) along with untreated control for 24 & 48 h. Examined difference in the morphology was captured by Olympus CKX41, ProgRes CT3 phase contrast microscope at 10X focussed lens.

HEK 293 T cells = test: Cell morphology analysis, HEK 293 T; assay type: cell-based, human; settings: 20 μM, 24 & 48 h, vs control
Protocol: as §1

tubulin polymerization = settings: cited from earlier work
Source text: Tubulins are one of the major cytoskeletal proteins and consists of alpha, beta and gamma tubulin proteins in the family. Acetylated alpha tubulin is known to stabilize microtubules and effect intracellular transport, cell migration and primary determinant for cell morphology. HDAC8 inhibition impedes the migration property in HeLa in turn affecting the morphology.

HDAC8 [3] = settings: by phosphorylation (PKA); cited from earlier work
Source text: The cytoplasmic localization of HDAC8 was further confirmed by immunoblot analysis using total, cytoplasmic and nuclear protein fractions of HEK 293 T and HeLa (Fig. 1d). […] With forskolin treatment, there was significant inc ... || In silico and spectroscopy based results have confirmed the interaction of HDAC8 with alpha tubulin & acetylated alpha tubulin peptide. To further validate the functional interaction we carried out IP and co-IP experiments with HDAC8 and acetylated alpha tubulin (ac-tubulin) antibodies. […] Densitometry results for the fold expression ...

HDAC8 [4] = test: Immunofluorescence / confocal localization of HDAC8 in HeLa and HEK 293 T cells; assay type: cell-based, human; settings: Forskolin (10 μM), 45 min
Protocol: (§2) Human embryonic kidney cells, HEK293T, human cervical carcinoma cells, HeLa, human breast cancer cells, MDA-MB 231, human lung adenocarcinoma cellsA549, chronic myeloid leukemia cells, K562, and human colon cancer cells, HCT11, were obtained from National Centre for Cell Sciences (NCCS), Pune, India. Cell line authentication by STR analysis was performed for 10 genetic loci for all the cell lines by Life code, Genomic technologies Pvt. Ltd., and tested for mycoplasma negative by performing PCR (mycoplasma specific genes) using EZdetect PCR kit for mycoplasma detection (CCK009). All the cells were cultured in high glucose DMEM medium containing 10% foetal bovine serum and 1% Penicillin/streptomycin (Himedia). Cells were seeded in 60 mm dishes and upon attaining 80–90% confluency, treatment was given with PCI-34051(Cayman Chemicals) (10 μM/20 μM) and tubastatin (5 μM) for 24 h or both in combination (PCI-34051 and Tubastatin) and Forskolin (Sigma) (10 μM) for 45 min independently along with untreated control as described earlier.
HeLa and HEK 293 T cells (Control, Forskolin, PCI-34051 (20 μM) treated) were fixed with 4% formaldehyde in PBS for 20 min at RT followed by permeabilization with 0.25% TritonX-100 in PBS. […]

HDAC8 [5] = test: HDAC8 FLUOR DE LYS fluorometric enzyme activity assay on immunoprecipitated HDAC8 fractions; assay type: biochemical, human; settings: Forskolin (10 μM); for HDAC8 enzyme activity, nuclear fraction: immunoprecipitated nuclear fraction (5 μg), vs untreated
Protocol: HDAC8 enzyme activity assay was performed using HDAC8 FLUOR DE LYS fluorometric assay kit (Cat# BML-AK518–0001) for Control, PCI-34051(10 μM), Forskolin (10 μM), Tubastatin (5 μM) - treated and immunoprecipitated samples of either total, cytoplasmic and nuclear fractions of HeLa and HEK 293 T cells using anti-HDAC8 antibody and anti-HDAC6 (2 μg antibody for ~ 500 μg) according to the manufacturer’s protocol.

[6] = system: acetylated alpha tubulin, HEK 293 T; test: Immunoblot of acetylated alpha tubulin in HEK 293 T cells; assay type: cell-based, human; settings: HEK 293 T, Forskolin (10 μM), 45 min, immunoblot normalized with GAPDH
Protocol: as §2
(§3) Total, cytoplasmic and nuclear fractions of HeLa or HEK 293 T cells treated with or without PCI-34051 (20 μM), [12] tubastatin (5 μM) and/or forskolin (10 μM) were prepared as described previously. Total protein samples of HEK 293 T, HeLa, MDAMB 231, K562, A549 and HCT11 cells / immunoprecipitated HDAC8 and HDAC6 samples from both HeLa and HEK 293 T lysates / HDAC8 siRNA transfected HEK 293 T and HeLa lysates were also prepared. The proteins were separated on 10 or 12% SDS-PAGE, transferred on to nitrocellulose membrane and probed with primary antibodies of HDAC8, Beta actin, Alpha tubulin, anti-acetylated alpha tubulin, HDAC6 and GAPDH. The bands were visualized using chemiluminiscence after probing with HRP-conjugated secondary antibody.
(§4) Source for siRNA oligonucleotides were considered from with sequence, HDAC8 Sense: […] and Anti-sense: […]. The oligonucleotides were converted into siRNA by following standard protocol as described earlier. HeLa and HEK 293 T cells were transfected with HDAC8 siRNA (10–15 μg/100 mm dish) using lipofectamine 2000 (Invitrogen), and considering untransfected as control. Cells were harvested after 72 h of post-transfection and processed for total RNA and protein isolation.

[7] = system: acetylated alpha tubulin, HeLa; test: Immunoblot of acetylated alpha tubulin in HeLa cells; assay type: cell-based, human; settings: Forskolin (10 μM), 45 min, immunoblot normalized with GAPDH
Protocol: as §2, §3, §4

| Structure (SMILES) | migration efficiency (rank order) (HeLa cells [1]) | cell morphology (cell size) (HeLa cells [2]) | cell morphology (aggregation / clump formation) (HEK 293 T cells) | consequence of inhibition of tubulin polymerization (tubulin polymerization) | effect on HDAC8 (HDAC8 [3]) | localization of HDAC8 (HDAC8 [4]) | cytoplasmic HDAC8 activity (HDAC8 [5]; HeLa and HEK 293 T, cytoplasmic fraction (5 μg)) | nuclear HDAC8 enzyme activity (discussion statement) (HDAC8 [5]; HeLa and HEK 293 T, nuclear fraction (5 μg)) | HDAC8 enzyme activity, nuclear fraction (HDAC8 [5]; HEK 293 T) | HDAC8 enzyme activity, nuclear fraction (HDAC8 [5]; HeLa) | levels of acetylated alpha tubulin [6] | levels of acetylated alpha tubulin ([6]; listed as forskolin) | levels of acetylated alpha tubulin [7] | levels of acetylated alpha tubulin ([7]; listed as forskolin) |
| --- | --- | --- | --- | --- | --- | --- | --- | --- | --- | --- | --- | --- | --- | --- |
| CC(=O)O[C@H]1C(=O)[C@@]2(C)[C@H]([C@H](OC(=O)c3ccccc3)[C@]3(O)C[C@H](OC(=O)[C@H](O)[C@@H](NC(=O)c4ccccc4)c4ccccc4)C(C)=C1C3(C)C)[C@]1(OC(C)=O)CO[C@@H]1C[C@@H]2O [Paclitaxel] | Control> > Paclitaxel>PCI-34051 | reduced (shrinking) cell size; also recorded: decreased cell size (shrinking) | clump formation; also recorded: cell aggregation | cell-cycle arrest and cell death | – | – | – | – | – | – | – | – | – | – |
| C=C[C@@]1(C)CC(=O)[C@]2(O)[C@@]3(C)[C@@H](O)CCC(C)(C)[C@@H]3[C@H](O)[C@H](OC(C)=O)[C@@]2(C)O1 [Forskolin] | – | – | – | – | known to inactivate HDAC8 by phosphorylation | no difference in localization of HDAC8 | decreased | increased | significant increase in the nuclear fraction | significant increase in the nuclear fraction | ac-alpha tubulin levels increase | increased significantly | ac-alpha tubulin levels increase | increased significantly; also recorded: significant increase of acetylated tubulin expression |
